Source: US6814988B2, “Process for optimizing milk production” (Novus International, Inc., priority 1997, dated 2004)
Where two headings read alike, the source gives them in different places. Blank lines part the entries; values can stand above or below the compound they belong to.

Tests used:
[1] = female, cow, in vivo
Protocol: (§1) The absorption and metabolism of 2-hydroxy-4-[methylthio]butanoic acid sold by Novus International (St. Louis, Mo. under the Alimet® was measured in four lactating dairy cows fitted with rumen and duodenal T-type cannulae (10 cm distal to the pylorus). The cows were offered a basal diet of barley-based concentrate (Table I) and alfalfa hay. The concentrate was fed at a level of 1 kg for every 2.5 kg of milk produced (Table I) and access to alfalfa hay was ad libitum. In addition, cows received 30 g HMB mixed with 2 kg ground corn grain per day for six days to allow for adaptation of the rumen microflora. Cows were then fed 90 g HMB mixed with the ground corn and were administered 600 ml chromium-EDTA (3 g Cr) (Binnerts et al., “Soluble chromium indicator measured by atomic absorption in digestion experiments” Vet. Rec. (1968) page 470) into the rumen via the rumen cannula. The HMB meal was offered to the cows for 20 minutes prior to the morning feeding and any of the remaining meal was placed in the rumen via the rumen cannula.
(§2) Blood, rumen and duodenal samples were collected at 0, 1, 3, 6, 9, 12 and 24 hours post-HMB-feeding. Blood was collected by jugular veni-puncture into 2×10 ml sterile tubes (Vacutainer Brand SST tubes for serum separation, Bectin Dickenson, Rutherford, N.J.), allowed to stand for 30 minutes in an ice bath and centrifuged at 3000×g to separate the serum from cells. Serum was divided into two fractions. The first fraction was deproteinized by adding an equal volume of acetonitrile and then centrifuging to obtain the supernatant. The deproteinized serum was then frozen (−70° C.) until analysis. A second fraction was not deproteinized but directly frozen (−70° C.). Rumen fluid (100 ml) collected from several sites within the rumen was strained through four layers of cheesecloth and subsampled. The subsample (30 ml) was acidified with 6 M HCl (0.5 ml) and frozen (−40° C.). Duodenal samples collected (100 ml) were also stored frozen (−40° C.). Rumen and duodenal samples were later thawed and centrifuged at 23 000×g, 4° C., for 20 minutes to obtain the clarified supernatant. The clarified rumen and the duodenal samples were then frozen until analysis. Serum was analyzed for methionine and rumen and duodenal samples for HMB. Chromium was measured by atomic absorption spectrophotometry in rumen and duodenal samples that were diluted with an equal volume of a calcium chloride solution to yield samples with approximately 400 ppm Ca^2+ (Williams et al., “The determination of chromic oxide in faeces samples by atomic absorption spectrophotometry” J. Agric. Sci., Vol. 59 (1962) pp. 381-385).
(§3) The slope of the line from the semilogarithmic plot is equal to the fractional rate constant (K). The rate constants were calculated by linear regression of the natural logarithm of Cr and HMB concentration verses time (Table III). Regression analysis of rumen Cr concentration was performed with data for 1 to 24 hours (excluding data for 0 hour).
(§4) Regression analysis for duodenal Cr and HMB concentration included the data for 3 to 24 hours and 3 to 12 hours, respectively. Excluding the data for 1 hour simplified the analysis by omitting the delay for the translocation of digesta from the rumen to the duodenum.

[2] = Lactation study, Alimet in close-up dry period and early lactation diets (Example 2); type: in vivo, cows
Protocol: The diets (Table IV) were formulated to include Alimet® to meet the methionine requirements as determined using existing computer modeling technology (CNCPS and DAIRYLP). The diets were balanced to meet amino acid requirements and included standard feed ingredients used in dairy rations. In the absence of added Alimet®, the control diet was predicted to be first limiting in methionine. The estimated need for methionine was approximately 9 grams per day. Alimet® was added assuming an availability to the ruminant of 20%.
This study included 10 multiparous and five primiparous cows per treatment, supplemented with Alimet® for two weeks before calving and for 12 weeks of lactation. […] At peak milk yield, Alimet-fed multiparous cows produced 7.9 kg/d more FCM than unsupplemented cows (42.0 vs 34.1 kg/d). The benefits of supplying post ruminal amino acid would appear to be greatest during the close-up dry period and early lactation.

[3] = Amount of methionine hydroxy analog bypassing the rumen and available for absorption, summary of experimental evidence; type: in vivo, ruminant
Source text: Everything considered, therefore, the amount of the hydroxy analog of methionine which bypasses the rumen and is available for absorption is between about 40% and about 55%.

in vivo = conditions: female, cow
Protocol: as §1, §2, §3, §4

[4] = Rumen bypass and gastrointestinal availability of HMB in rumen- and duodenum-cannulated lactating dairy cows (Example 1); conditions: for Chromium Concentration: 3 g Cr into rumen
Protocol: as §1, §2, §3, §4

[5] = duodenal fluid, 3 to 24 hours, cow 124
[6] = duodenal fluid, 3 to 24 hours, cow 131
[7] = duodenal fluid, 3 to 24 hours, cow 133
[8] = duodenal fluid, 3 to 24 hours, cow 138
[9] = duodenal fluid, 3 to 24 hours, mean of four cows
[10] = rumen fluid, 1 to 24 hours, cow 24
[11] = rumen fluid, 1 to 24 hours, cow 131
[12] = rumen fluid, 1 to 24 hours, cow 133
[13] = rumen fluid, 1 to 24 hours, cow 138
[14] = rumen fluid, 1 to 24 hours, mean of four cows

percent of the HMB dose absorbed in the omasum [1]: 8.8%
percent of the HMB dose bypassing the rumen fermentation [1]: 40%
percent of the HMB dose that disappeared (was degraded) in the rumen [1]: 60%
percent of the HMB that passed to the small intestine [1]: 31.2%
rate constant for microbial degradation of HMB within the rumen [1]: −0.1962
time by which rumen and duodenal HMB and serum methionine had returned to pre-dose levels [1]: ≤ 12 h
time of peak duodenal HMB concentration [1]: 3 h
time of peak ruminal HMB concentration [1]: 1 h
time of peak serum methionine concentration [1]: 6 h
HMB Concentration ([1]; 0 h): <10 µg/mL
increase in serum methionine above pre-dose levels at the peak concentration ([1]; 6 h): 200%
HMB Concentration ([1]; 24 h): <10 µg/mL
amount absorbed by the omasum ([3]; additional experimental evidence): about 8.8%
amount which by-passes the rumen ([3]; experimental bypass data and field work with dairy cattle (milk response), molecular basis): at least 40%
amount which bypasses the rumen and is available for absorption ([3]; fed in the absence of a bypass fat, molecular basis, experimental evidence to date): at least 20%
bioavailability (in vivo): 40%
concentration at 0 h (in vivo; HMB Concentration): < 10000 ng/mL
concentration at 24 h (in vivo; HMB Concentration): < 10000 ng/mL
concentration at 24 h (in vivo; rumen concentration of HMB): < 10000 ng/mL
Compound: CSCCC(O)C(=O)O (stereo not drawn) [HMB, DL, 2-hydroxy-4-[methylthio]butanoic acid]
more FCM than unsupplemented cows ([2]; multiparous cows at peak milk yield): 7.9 kg/day
FCM production ([2]; multiparous cows at peak milk yield, unsupplemented 34.1): 42.0 kg/day
milk protein content, higher than unsupplemented cows ([2]; supplemented two weeks before calving and 12 weeks of lactation): not
milk fat content ([2]; supplemented two weeks before calving and 12 weeks of lactation, unsupplemented 3.71%): 4.01%
fat-corrected content (FCM) production ([2]; supplemented two weeks before calving and 12 weeks of lactation, unsupplemented 29.2): 33.4 kg/day
milk production ([2]; supplemented two weeks before calving and 12 weeks of lactation, unsupplemented 31.3): 33.9 kg/day

Chromium Concentration ([4]; duodenal fluid, 0 h, cow 124): 1.36 µg/mL
Chromium Concentration ([4]; duodenal fluid, 0 h, cow 131): 0.05 µg/mL
Chromium Concentration ([4]; duodenal fluid, 0 h, cow 133): 0.05 µg/mL
Chromium Concentration ([4]; duodenal fluid, 0 h, cow 138): 0.02 µg/mL
Constant, linear regression of natural logarithm of Cr concentration versus time [4, 5]: 3.0038
K (fractional rate constant), Chromium [4, 5]: −.0705
Constant, linear regression of natural logarithm of Cr concentration versus time [4, 6]: 3.5284
K (fractional rate constant), Chromium [4, 6]: −.1201
Constant, linear regression of natural logarithm of Cr concentration versus time [4, 7]: 3.6342
K (fractional rate constant), Chromium [4, 7]: −.1173
Constant, linear regression of natural logarithm of Cr concentration versus time [4, 8]: 3.7419
K (fractional rate constant), Chromium [4, 8]: −.1135
Constant, linear regression of natural logarithm of Cr concentration versus time [4, 9]: 3.4771
K (fractional rate constant), Chromium; rate constant for passage of the Cr marker to the duodenum [4, 9]: −.1053
K (fractional rate constant), Chromium; rate constant for passage of the Cr marker to the duodenum ([4]; duodenal fluid, 3 to 24 hours, mean of four cows, listed as Cr): −0.1053
Chromium Concentration ([4]; duodenal fluid, 1 h, cow 124): 11.69 µg/mL
Chromium Concentration ([4]; duodenal fluid, 1 h, cow 131): 23.80 µg/mL
Chromium Concentration ([4]; duodenal fluid, 1 h, cow 133): 12.14 µg/mL
Chromium Concentration ([4]; duodenal fluid, 1 h, cow 138): 17.98 µg/mL
Chromium Concentration ([4]; duodenal fluid, 3 h, cow 124): 18.30 µg/mL
Chromium Concentration ([4]; duodenal fluid, 3 h, cow 131): 24.55 µg/mL
Chromium Concentration ([4]; duodenal fluid, 3 h, cow 133): 25.41 µg/mL
Chromium Concentration ([4]; duodenal fluid, 3 h, cow 138): 27.23 µg/mL
Chromium Concentration ([4]; duodenal fluid, 6 h, cow 124): 11.99 µg/mL
Chromium Concentration ([4]; duodenal fluid, 6 h, cow 131): 17.86 µg/mL
Chromium Concentration ([4]; duodenal fluid, 6 h, cow 133): 18.42 µg/mL
Chromium Concentration ([4]; duodenal fluid, 6 h, cow 138): 23.24 µg/mL
Chromium Concentration ([4]; duodenal fluid, 9 h, cow 124): 11.00 µg/mL
Chromium Concentration ([4]; duodenal fluid, 9 h, cow 131): 12.16 µg/mL
Chromium Concentration ([4]; duodenal fluid, 9 h, cow 133): 16.36 µg/mL
Chromium Concentration ([4]; duodenal fluid, 9 h, cow 138): 19.26 µg/mL
Chromium Concentration ([4]; duodenal fluid, 12 h, cow 124): 7.89 µg/mL
Chromium Concentration ([4]; duodenal fluid, 12 h, cow 131): 6.39 µg/mL
Chromium Concentration ([4]; duodenal fluid, 12 h, cow 133): 7.89 µg/mL
Chromium Concentration ([4]; duodenal fluid, 12 h, cow 138): 8.39 µg/mL
Chromium Concentration ([4]; duodenal fluid, 24 h, cow 124): 3.88 µg/mL
Chromium Concentration ([4]; duodenal fluid, 24 h, cow 131): 2.06 µg/mL
Chromium Concentration ([4]; duodenal fluid, 24 h, cow 133): 2.29 µg/mL
Chromium Concentration ([4]; duodenal fluid, 24 h, cow 138): 2.85 µg/mL
Chromium Concentration ([4]; rumen fluid, 0 h, cow 124): 0.04 µg/mL
Chromium Concentration ([4]; rumen fluid, 0 h, cow 131): 0.07 µg/mL
Chromium Concentration ([4]; rumen fluid, 0 h, cow 133): 0.01 µg/mL
Chromium Concentration ([4]; rumen fluid, 0 h, cow 138): 0.02 µg/mL
Constant, linear regression of natural logarithm of Cr concentration versus time [4, 10]: 3.4702
K (fractional rate constant), Chromium [4, 10]: −.0940
Constant, linear regression of natural logarithm of Cr concentration versus time [4, 11]: 2.7330
K (fractional rate constant), Chromium [4, 11]: −.1576
Constant, linear regression of natural logarithm of Cr concentration versus time [4, 12]: 3.7310
K (fractional rate constant), Chromium [4, 12]: −.1302
Constant, linear regression of natural logarithm of Cr concentration versus time [4, 13]: 3.9905
K (fractional rate constant), Chromium [4, 13]: −.1411
Constant, linear regression of natural logarithm of Cr concentration versus time [4, 14]: 3.7312
K (fractional rate constant), Chromium; rate of passage of the liquid marker from the rumen [4, 14]: −.1307
K (fractional rate constant), Chromium; rate of passage of the liquid marker from the rumen ([4]; rumen fluid, 1 to 24 hours, mean of four cows, listed as Cr): −0.1307
Chromium Concentration ([4]; rumen fluid, 1 h, cow 124): 31.83 µg/mL
Chromium Concentration ([4]; rumen fluid, 1 h, cow 131): 36.27 µg/mL
Chromium Concentration ([4]; rumen fluid, 1 h, cow 133): 40.44 µg/mL
Chromium Concentration ([4]; rumen fluid, 1 h, cow 138): 45.51 µg/mL
Chromium Concentration ([4]; rumen fluid, 3 h, cow 124): 23.77 µg/mL
Chromium Concentration ([4]; rumen fluid, 3 h, cow 131): 29.11 µg/mL
Chromium Concentration ([4]; rumen fluid, 3 h, cow 133): 34.52 µg/mL
Chromium Concentration ([4]; rumen fluid, 3 h, cow 138): 37.05 µg/mL
Chromium Concentration ([4]; rumen fluid, 6 h, cow 124): 19.29 µg/mL
Chromium Concentration ([4]; rumen fluid, 6 h, cow 131): 18.09 µg/mL
Chromium Concentration ([4]; rumen fluid, 6 h, cow 133): 16.62 µg/mL
Chromium Concentration ([4]; rumen fluid, 6 h, cow 138): 27.94 µg/mL
Chromium Concentration ([4]; rumen fluid, 9 h, cow 124): 12.93 µg/mL
Chromium Concentration ([4]; rumen fluid, 9 h, cow 131): 8.89 µg/mL
Chromium Concentration ([4]; rumen fluid, 9 h, cow 133): 10.79 µg/mL
Chromium Concentration ([4]; rumen fluid, 9 h, cow 138): 13.89 µg/mL
Chromium Concentration ([4]; rumen fluid, 12 h, cow 124): 9.16 µg/mL
Chromium Concentration ([4]; rumen fluid, 12 h, cow 131): 5.04 µg/mL
Chromium Concentration ([4]; rumen fluid, 12 h, cow 133): 7.86 µg/mL
Chromium Concentration ([4]; rumen fluid, 12 h, cow 138): 8.28 µg/mL
Chromium Concentration ([4]; rumen fluid, 24 h, cow 124): 3.62 µg/mL
Chromium Concentration ([4]; rumen fluid, 24 h, cow 131): 1.07 µg/mL
Chromium Concentration ([4]; rumen fluid, 24 h, cow 133): 2.08 µg/mL
Chromium Concentration ([4]; rumen fluid, 24 h, cow 138): 1.97 µg/mL
Compound: chromium-EDTA
